# According to patent US20070275967A1, “Pyrazolinols” (BAYER CROPSCIENCE AKTIENGESELLSCHAFT, priority 2003, published 2007):
# What was measured:
# [1] = tested on: green peach aphid (Myzus persicae); assay: Myzus test (spray treatment); format: in vivo; conditions: for activity (kill of aphids): Chinese cabbage disks infested by all stages of Myzus persicae, sprayed, result in words; for pest or weed control at 500 g/ha: active compound concentration 500 g/ha
# Experimental: Myzus Test (Spray Treatment) [table] To produce a suitable preparation of active compound, 1 part by weight of active compound is mixed with the stated amounts of solvents and emulsifier, and the concentrate is diluted with emulsifier-containing water to the desired concentration. Disks of Chinese cabbage (Brassica pekinensis) which are infested by all stages of the green peach aphid (Myzus persicae) are sprayed with a preparation of active compound of the desired concentration. After the desired period of time, the activity in % is determined. 100% means that all aphids have been killed; 0% means that none of the aphids have been killed.
# [2] = tested on: greenhouse red spidermite (Tetranychus urticae); assay: Tetranychus test (OP-resistant/spray treatment); format: in vivo; conditions: for pest or weed control at 100 g/ha / pest or weed control at 500 g/ha: Tetranychus urticae, 120 h, after 5 d, OP-resistant, spray treatment, read-out: Kill rate in % after 5 d; for pest or weed control at 100 g/ha: active compound concentration 100 g/ha; for activity (kill of spidermites): bean leaf disks infested by all stages of Tetranychus urticae (OP-resistant), sprayed, result in words; for pest or weed control at 500 g/ha: active compound concentration 500 g/ha
# Experimental: Tetranychus Test (OP-Resistant/Spray Treatment)
# To produce a suitable preparation of active compound, 1 part by weight of active compound is mixed with the stated amounts of solvents and emulsifier, and the concentrate is diluted with emulsifier-containing water to the desired concentration.
# Disks of bean leaves (Phaseolus vulgaris) which are infested by all stages of the greenhouse red spidermite (Tetranychus urticae) are sprayed with a preparation of active compound of the desired concentration.
# After the desired period of time, the activity in % is determined. 100% means that all spidermites have been killed; 0% means that none of the spidermites have been killed.
# [3] = logP determination by HPLC on reversed-phase column (EEC Directive 79/831 Annex V.A8); format: physicochemical; conditions: reversed-phase C18 HPLC column; acidic range (pH 2.3), marked a); 0.1% aqueous phosphoric acid/acetonitrile gradient; reversed-phase C 18; 43° C.
# Experimental: The logP values given in the table were determined in accordance with EEC Directive 79/831 Annex V.A8 by HPLC (High Performance Liquid Chromatography) on a reversed-phase column (C 18). Temperature: 43° C. (a) Mobile phases for the determination in the acidic range (pH 2.3): 0.1% aqueous phosphoric acid, acetonitrile; linear gradient from 10% acetonitrile to 90% acetonitrile—the corresponding measurement results in table 1 are marked a). (b) Mobile phases for the determination in the neutral range (pH 7.5): 0.01-molar aqueous phosphate buffer solution, acetonitrile; linear gradient from 10% acetonitrile to 90% acetonitrile—the corresponding measurement results in table 1 are marked b). Calibration was carried out using unbranched alkan-2-ones (having 3 to 16 carbon atoms) with known logP values (determination of the logP values by the retention times using linear interpolation between two successive alkanones).
# [4] = tested on: larvae of the mustard beetle (Phaedon cochleariae); assay: Phaedon test (spray treatment); format: in vivo; conditions: for activity (kill of beetle larvae): Chinese cabbage disks sprayed, populated with Phaedon cochleariae larvae, result in words; for pest or weed control at 500 g/ha / pest or weed control at 100 g/ha: Phaedon cochleariae, 168 h, after 7 d, spray treatment, read-out: Kill rate in % after 7 d; for pest or weed control at 500 g/ha: active compound concentration 500 g/ha; for pest or weed control at 100 g/ha: active compound concentration 100 g/ha
# Experimental: Phaedon Test (Spray Treatment) [table] To produce a suitable preparation of active compound, 1 part by weight of active compound is mixed with the stated amounts of solvents and emulsifier, and the concentrate is diluted with emulsifier-containing water to the desired concentration. Disks of Chinese cabbage (Brassica pekinensis) are sprayed with a preparation of active compound of the desired concentration and, once they have dried, populated with larvae of the mustard beetle (Phaedon cochleariae). After the desired period of time, the activity in % is determined. 100% means that all beetle larvae have been killed; 0% means that none of the beetle larvae have been killed.
# [5] = tested on: caterpillars of the armyworm (Spodoptera frugiperda); assay: Spodoptera frugiperda test (spray treatment); format: in vivo; conditions: for pest or weed control at 500 g/ha / pest or weed control at 100 g/ha: Spodoptera frugiperda, 168 h, after 7 d, spray treatment, read-out: Kill rate in % after 7 d; for pest or weed control at 500 g/ha: active compound concentration 500 g/ha; for activity (kill of caterpillars): corn leaf disks sprayed, populated with Spodoptera frugiperda caterpillars, result in words; for pest or weed control at 100 g/ha: active compound concentration 100 g/ha
# Experimental: Spodoptera Frugiperda Test (Spray Treatment) [table] To produce a suitable preparation of active compound, 1 part by weight of active compound is mixed with, the stated amounts of solvents and emulsifier, and the concentrate is diluted with emulsifier-containing water to the desired concentration. Disks of corn leaves (Zea mays) are sprayed with a preparation of active compound of the desired concentration and, after they have dried, populated with caterpillars of the armyworm (Spodoptera frugiperda). After the desired period of time, the activity in % is determined. 100% means that all caterpillars have been killed; 0% means that none of the caterpillars have been killed.
# Meloidogyne incognita = assay: Meloidogyne test (nematicidal action by gall formation on lettuce roots); format: in vivo; conditions: for nematicidal action (formation of galls): Meloidogyne incognita egg/larvae suspension, lettuce, sand, result in words; for pest or weed control at 20 ppm: Meloidogyne incognita, 336 h, active compound concentration 20 ppm, after 14 d, nematicidal action by gall formation, read-out: Effect in % after 14 d
# Experimental: Meloidogyne Test [table] To produce a suitable preparation of active compound, 1 part by weight of active compound is mixed with the stated amounts of solvent and emulsifier, and the concentrate is diluted with water to the desired concentration. Containers are filled with sand, solution of active compound, Meloidogyne incognita egg/larvae suspension and lettuce seeds. The lettuce seeds germinate and the plants develop. On the roots, galls are formed. After the desired period of time, the nematicidal action is determined in % by the formation of galls. 100% means that no galls were found; 0% means that the number of galls on the treated plants corresponds to that of the untreated control.
# [6] = Myzus persicae, 120 h, after 5 d, spray treatment, read-out: Kill rate in % after 5 d
SMILES,activity (kill of aphids) [1],"pest or weed control at 500 g/ha [1, 6] [%]",activity (kill of spidermites) [2],chromatographic logP [3],activity (kill of beetle larvae) [4],pest or weed control at 500 g/ha [4] [%],pest or weed control at 500 g/ha [5] [%],activity (kill of caterpillars) [5],other results
"CC(C)C1=NN(C(=S)Nc2ccccc2F)C(O)(C(F)(F)F)C1 (centres unmarked) [Example 1, N-(2-fluorophenyl)-5-hydroxy-3-(i-propyl)-5-trifluoromethyl-4,5-dihydro-1H-pyrazole-1-carbothioamide]",good activity,100,good activity,3.86,good activity,100,100,good activity,pest or weed control at 100 g/ha [2]: 90%
CCC1=NN(C(=O)Nc2ccc(OC(F)(F)F)cc2)C(O)(C(F)(F)F)C1 (centres unmarked) [Example 12],good activity,100,,3.74,,,,,
CCC1=NN(C(=S)Nc2ccc(OC)cc2)C(O)(C(F)(F)F)C1 (centres unmarked) [Example 14],,,,3.47,,,,,nematicidal action (formation of galls) (Meloidogyne incognita): good activity; pest or weed control at 20 ppm (Meloidogyne incognita): 100%
CCC1=NN(C(=S)Nc2ccccc2Cl)C(O)(C(F)(F)F)C1 (centres unmarked) [Example 15],good activity,90,,3.85,,,,,
COc1ccc(NC(=S)N2N=C(C(C)C)CC2(O)C(F)(F)F)cc1 (centres unmarked) [Example 19],,,,3.83,,,,,nematicidal action (formation of galls) (Meloidogyne incognita): good activity; pest or weed control at 20 ppm (Meloidogyne incognita): 100%
CC(C)C1=NN(C(=S)Nc2ccccc2Cl)C(O)(C(F)(F)F)C1 (centres unmarked) [Example 20],good activity,100,,4.28,,,100,good activity,
CC(C)CC1=NN(C(=S)Nc2ccccc2Cl)C(O)(C(F)(F)F)C1 (centres unmarked) [Example 24],good activity,90,good activity,4.6,,,100,good activity,pest or weed control at 500 g/ha [2]: 90%
CC(C)C1=NN(C(=S)Nc2ccccc2)C(O)(C(F)(F)F)C1 (centres unmarked) [Example 27],good activity,100,good activity,3.9,good activity,100,100,good activity,pest or weed control at 100 g/ha [2]: 90%
CC(C)C1=NN(C(=S)Nc2ccccc2[N+](=O)[O-])C(O)(C(F)(F)F)C1 (centres unmarked) [Example 31],good activity,100,,4.04,good activity,100,100,good activity,
CC(C)C1=NN(C(=S)Nc2cc(Cl)ccc2Cl)C(O)(C(F)(F)F)C1 (centres unmarked) [Example 33],good activity,100,,4.87,good activity,100,,,
CCC1=NN(C(=S)Nc2ccccc2F)C(O)(C(F)(F)F)C1 (centres unmarked) [Example 40],good activity,90,,3.51,,,,,
CC(C)C1=NN(C(=S)NCc2ccccc2Cl)C(O)(C(F)(F)F)C1 (centres unmarked) [Example 42],good activity,100,good activity,4.58,good activity,100,100,good activity,pest or weed control at 500 g/ha [2]: 100%
CC(C)C1=NN(C(=S)NCCN2CCOCC2)C(O)(C(F)(F)F)C1 (centres unmarked) [Example 43],,,,1.45,,,,,nematicidal action (formation of galls) (Meloidogyne incognita): good activity; pest or weed control at 20 ppm (Meloidogyne incognita): 100%
CC(C)C1=NN(C(=S)NC2CCCCC2)C(O)(C(F)(F)F)C1 (centres unmarked) [Example 44],,,good activity,4.94,good activity,100,100,good activity,pest or weed control at 500 g/ha [2]: 90%
CC1=NN(C(=O)Nc2ccc(OC(F)(F)F)cc2)C(O)(C(F)(F)F)C1 (centres unmarked) [Example 46],good activity,90,,3.35,,,,,
CCC1=NN(C(=S)NCc2ccccc2F)C(O)(C(F)(F)F)C1 (centres unmarked) [Example 55],,,good activity,3.88,good activity,100,100,good activity,pest or weed control at 100 g/ha [2]: 90%
Cc1ccc(NC(=O)N2N=C(C(C)(C)C)CC2(O)C(F)(F)F)cc1 (centres unmarked) [Example 70],good activity,,,4.05,,,,,"pest or weed control at 100 g/ha ([1]; Myzus persicae, 120 h, active compound concentration 100 g/ha, after 5 d, spray treatment, read-out: Kill rate in % after 5 d): 100%"
CC(C)(C)C1=NN(C(=S)Nc2ccc(Cl)cc2)C(O)(C(F)(F)F)C1 (centres unmarked) [Example 74],,,good activity,4.75,good activity,,,good activity,pest or weed control at 100 g/ha [2]: 100%; pest or weed control at 100 g/ha [4]: 100%; pest or weed control at 100 g/ha [5]: 100%
CC(C)(C)C1=NN(C(=S)NCc2ccc(Cl)cc2)C(O)(C(F)(F)F)C1 (centres unmarked) [Example 75],,,good activity,4.9,good activity,,,good activity,pest or weed control at 100 g/ha [2]: 100%; pest or weed control at 100 g/ha [4]: 100%; pest or weed control at 100 g/ha [5]: 100%
CC1=NN(C(=S)Nc2ccc(Cl)cc2)C(O)(C(F)(F)F)C1 (centres unmarked) [Example 122],,,,,,,,,nematicidal action (formation of galls) (Meloidogyne incognita): good activity; pest or weed control at 20 ppm (Meloidogyne incognita): 90%
CC1=NN(C(=S)NCc2ccc(Cl)cc2)C(O)(C(F)(F)F)C1 (centres unmarked) [Example 123],,,,,,,,,nematicidal action (formation of galls) (Meloidogyne incognita): good activity; pest or weed control at 20 ppm (Meloidogyne incognita): 90%
